Data published in US20260097037A1, “FUSED RING COMPOUND HAVING GLP-1 RECEPTOR AGONIST EFFECT” (Shionogi & Co., Ltd., priority 2022, published 2026).
Read-outs that look alike come from different tables or passages of the source.

Target: T1, Human GLP-1 receptor stably expressing cells (hGLP-1R/CHO-K1 cells) (Homo sapiens, UniProt P43220)
T1 construct: expressed in transfected cells
Assay: Measurement of GLP-1 receptor agonist activity (cAMP assay)
Assay type: cell-based
Details: for Emax: cAMP with 2 nM human GLP-1 (7-36) = 100%, DMSO only = 0%; for EC50: increase in cAMP concentration in hGLP-1R/CHO-K1 cells, 37° C. 1 hour
Method: Test Example 1: Measurement of GLP-1 Receptor Agonist Activity
Human GLP-1 receptor stably expressing cells (hGLP-1R/CHO-K1 cells) are cultured in an a-MEM medium (Sigma) containing 10% FBS (Hyclone), 2% GlutaMAX (Gibco), 1% G418 (Nacalai Tesque), and 1% Penicillin-Streptomycin Mixed Solution (Sigma) at 37° C. under 5% CO2 conditions, and recovered by treating a 10 fold diluted 5.0 g/1-trypsin/5.3 mmol/1-EDTA solution (Nacalai Tesque) and cryopreserved.
A DMSO solution containing the compound of the present invention or human GLP-1 (7-36) (Phoenix Pharmaceuticals) is dispensed into a 384-well microplate (Greiner) at 62.5 nL/well, and in addition, 400 μM Forskolin (Nacalai Tesque) is dispensed therein at 7.5 nL/well. Subsequently, the frozen GLP-1 R/CHO-K1 cells are thawed in a thermostatic bath at 37° C., suspended in HBSS buffer (GIBCO) containing 0.1% BSA (Sigma), 20 mM HEPES, 0.1 mM IBMX (Sigma), and 0.2 mM RO20-1724 (Calbiochem) at 2×10^4 cells/mL, and the cell suspension is added at 6 μL/well. The solution was incubated at 37° C. for 1 hour and intracellular cAMP concentration is measured using cAMP Gs dynamic kit (Cisbio) according to the protocol attached to the product. Specifically, a cAMP-d2/Anti-cAMP-Cryptate (1/1) mixture solution is added in a total amount of 6 μL/well, and is incubated at room temperature for 1 hour, and then, time-resolved fluorescence is measured using PHERAstar (BMG Labtech).
Assuming that the cAMP concentration when human GLP-1 (7-36) is dispensed to a final concentration of 2 nM is 100% and the cAMP concentration when only DMSO is dispensed is 0%, the 50% effective concentration (EC50) and the maximum effect (Emax) of the compound of the present invention are calculated using an increase in the cAMP concentration as an index, using TIBCO Spotfire (TIBCO Software). The dilution concentration or the dilution solvent are changed as necessary.
The compounds of the present invention were tested essentially as described above.

[1] = CHO-K1, maximum effect, read-out: Emax

T1 sequence (P43220 24-463): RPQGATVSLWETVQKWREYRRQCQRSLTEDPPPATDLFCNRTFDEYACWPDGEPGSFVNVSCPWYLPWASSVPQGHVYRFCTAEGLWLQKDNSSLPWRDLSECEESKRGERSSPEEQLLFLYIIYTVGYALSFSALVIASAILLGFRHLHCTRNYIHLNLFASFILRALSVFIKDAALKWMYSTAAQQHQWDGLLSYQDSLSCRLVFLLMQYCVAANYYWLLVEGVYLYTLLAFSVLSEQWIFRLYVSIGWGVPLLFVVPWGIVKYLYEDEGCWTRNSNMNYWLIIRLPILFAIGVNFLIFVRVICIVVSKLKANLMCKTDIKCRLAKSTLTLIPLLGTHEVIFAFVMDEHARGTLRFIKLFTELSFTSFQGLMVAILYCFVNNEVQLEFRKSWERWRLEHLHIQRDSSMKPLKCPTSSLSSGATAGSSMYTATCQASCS

Row | Emax [1] | EC50 | Emax (maximum effect) | Compound
1 | 109% | 168 pM |  | Cc1cc2c(nc1OCc1ccc(Cl)cc1F)[C@H](C)N(Cc1nc3ccc(C(=O)O)cc3n1C[C@@H]1CCO1)CC2 [Compound I-002]
2 | 75.7% | 886000 pM |  | C[C@@H]1c2nc(OCc3ccc(Cl)cc3F)ncc2CCN1Cc1nc2ccc(C(=O)O)cc2n1C[C@@H]1CCO1 [Compound I-079]
3 | 121% | 96.3 pM |  | COc1cc(Cl)ccc1COc1nc2c(cc1C(F)F)CCN(Cc1nc3ccc(C(=O)O)cc3n1C[C@@H]1CCO1)[C@H]2C [Compound I-054]
4 | 94.7% | 58.7 pM |  | C[C@H]1c2nc(OCc3ccc(Cl)cc3Cl)c(Cl)cc2CCN1Cc1nc2c(F)cc(C(=O)O)cc2n1C[C@@H]1CCO1 [Compound I-084]
5 | 118% | 1160 pM |  | Cc1ccc(COc2nc3c(cc2C(F)F)CCN(Cc2nc4ccc(C(=O)O)nc4n2C[C@@H]2CCO2)[C@H]3C)cc1 [Compound I-098]
6 | 127% | 275 pM |  | C[C@H]1c2nc(OCc3ccc(Cl)cn3)c(C(F)F)cc2CCN1Cc1nc2ccc(C(=O)O)c(F)c2n1C[C@@H]1CCO1 [Compound I-123]
7 | 111% | 3390 pM |  | Cc1ccc(COc2cc3c(cc2C(F)F)CCN(Cc2nc4ccc(C(=O)O)cc4n2C[C@@H]2CCO2)[C@H]3C)cc1 [Compound I-005]
8 | 111% | 965 pM |  | C[C@H]1c2nc(OCc3ccc(C#N)c4occc34)c(C(F)(F)F)cc2CCN1Cc1nc2ccc(C(=O)O)cc2n1C[C@@H]1CCO1 [Compound I-165]
9 | 104% | 193 pM |  | C[C@H]1c2nc(NCc3ccc(Cl)cc3)c(C(F)(F)F)cc2CCN1Cc1nc2c(Cl)cc(C(=O)O)cc2n1C[C@@H]1CCO1 [Compound I-168]
10 | 88% | 7910 pM |  | C[C@H]1c2cc(OCc3ccccc3Cl)c(C(F)F)cc2CCN1Cc1nc2ccc(C(=O)O)cc2n1C[C@@H]1CCO1 [Compound I-007]
11 | 124% | 222 pM |  | C[C@H]1c2nc(OCc3ccc(Cl)cc3)c(C#N)cc2CCN1Cc1nc2c(Cl)cc(C(=O)O)cc2n1C[C@@H]1CCO1 [Compound I-189]
12 | 127% | 16.2 pM |  | COc1cc(C(=O)O)cc2c1nc(CN1CCc3cc(C(F)F)c(OCc4ccc(Cl)cc4Cl)nc3[C@@H]1C)n2C[C@@H]1CCO1 [Compound I-132]
13 | 83.3% | 32300 pM |  | C[C@H]1c2nc(OCc3nc4ccccn4n3)c(C(F)(F)F)cc2CCN1Cc1nc2ccc(C(=O)O)cc2n1C[C@@H]1CCO1 [Compound I-163]
14 | 128% | 10.4 pM |  | COc1cc(C(=O)O)cc2c1nc(CN1CCc3cc(C(F)F)c(OCc4c(F)cc(Cl)cc4F)nc3[C@@H]1C)n2C[C@@H]1CCO1 [Compound I-134]
15 | 103% | 86.5 pM |  | C[C@H]1c2nc(OCc3c(F)cc(Cl)cc3F)c(Cl)cc2CCN1Cc1nc2c(F)cc(C(=O)O)cc2n1C[C@@H]1CCO1 [Compound I-088]
16 | 109% | 343 pM |  | C[C@H]1c2nc(OCc3ccc(Cl)cc3F)c(C(F)F)cc2CCN1Cc1nc2ccc(C(=O)O)nc2n1C[C@@H]1CCO1 [Compound I-097]
17 | 109% | 205 pM |  | C[C@H]1c2nc(NCc3ccc(Cl)cc3Cl)c(C(F)(F)F)cc2CCN1Cc1nc2c(F)cc(C(=O)O)cc2n1C[C@@H]1CCO1 [Compound I-166]
18 | 92.3% | 195 pM |  | C[C@H]1c2nc(OCc3ccc(C#N)cc3F)c(C(F)F)cc2CCN1Cc1nc2ccc(C(=O)O)cc2n1C[C@@H]1CCO1 [Compound I-063]
19 | 92.7% | 924 pM |  | C[C@H]1c2nc(OCc3ccc(Cl)cn3)c(C(F)F)cc2CCN1Cc1nc2ccc(C(=O)O)cc2n1C[C@@H]1CCO1 [Compound I-058]
20 | 120% | 148 pM |  | Cc1ccc(COc2nc3c(cc2C(F)F)CCN(Cc2nc4ccc(C(=O)O)c(F)c4n2C[C@@H]2CCO2)[C@H]3C)cc1 [Compound I-119]
21 | 126% | 109 pM |  | C[C@H]1c2cc(OCc3c(F)cc(F)cc3F)c(Cl)cc2CCN1Cc1nc2ccc(C(=O)O)c(F)c2n1C[C@@H]1CCO1 [Compound I-044]
22 | 108% | 469 pM |  | C[C@H]1c2nc(OCc3c(F)cc(Cl)cc3F)c(C(F)F)cc2CCN1Cc1nc2ccc(C(=O)O)nc2n1C[C@@H]1CCO1 [Compound I-101]

Row | Emax [1] | EC50 | Emax (maximum effect) | Compound
23 |  | 748 pM | 110% | Cc1ccc(COc2nc3c(cc2Cl)CCN(Cc2nc4ccc(C(=O)O)cc4n2C[C@@H]2CCO2)[C@H]3C)cc1 [Compound I-028]
24 | 106% | 27.4 pM |  | COc1cc(C(=O)O)cc2c1nc(CN1CCc3cc(Cl)c(OCc4cc(F)c(Cl)cc4F)nc3[C@@H]1C)n2C[C@@H]1CCO1 [Compound I-072]
25 | 118% | 64.7 pM |  | C[C@H]1c2cc(OCc3c(F)cc(Cl)cc3F)c(Cl)cc2CCN1Cc1nc2ccc(C(=O)O)c(F)c2n1C[C@@H]1CCO1 [Compound I-043]
26 | 126% | 368 pM |  | C[C@H]1c2nc(OCc3ccc(C#N)cc3F)c(Cl)cc2CCN1Cc1nc2ccc(C(=O)O)nc2n1C[C@@H]1CCO1 [Compound I-032]
27 | 122% | 105 pM |  | C[C@H]1c2nc(OCc3ccc(F)cc3F)c(Cl)cc2CCN1Cc1nc2ccc(C(=O)O)c(F)c2n1C[C@@H]1CCO1 [Compound I-037]
28 | 102% | 345 pM |  | C[C@H]1c2nc(OCc3ccc(Cl)cc3F)c(C(F)(F)F)cc2CCN1Cc1nc2c(-c3ccn(C)n3)cc(C(=O)O)cc2n1C[C@@H]1CCO1 [Compound I-064]
29 | 91.7% | 2640 pM |  | C[C@H]1c2c(ccc3c2OC(C)(c2ccc(Cl)cc2F)O3)CCN1Cc1nc2ccc(C(=O)O)cc2n1C[C@@H]1CCO1 (some centres unmarked) [Compound I-091]
30 | 105% | 2880 pM |  | C[C@H]1c2cc(OCc3ccc(Cl)cc3)c(C(F)F)cc2CCN1Cc1nc2ccc(C(=O)O)cc2n1C[C@@H]1CCO1 [Compound I-004]
31 | 110% | 68.3 pM |  | COc1cc(C(=O)O)cc2c1nc(CN1CCc3cc(Cl)c(OCc4ccc(OC(F)F)cc4F)nc3[C@@H]1C)n2C[C@@H]1CCO1 [Compound I-071]
32 | 113% | 43 pM |  | C[C@H]1c2nc(OCc3ccc(C#N)cc3F)c(C(F)F)cc2CCN1Cc1nc2c(F)cc(C(=O)O)cc2n1C[C@@H]1CCO1 [Compound I-115]
33 | 106% | 35.3 pM |  | C[C@H]1c2nc(NCc3c(F)cc(Cl)cc3F)c(C(F)(F)F)cc2CCN1Cc1nc2c(Cl)cc(C(=O)O)cc2n1C[C@@H]1CCO1 [Compound I-172]
34 | 111% | 493 pM |  | C[C@H]1c2c(cc(C(F)(F)F)c3c2O[C@@](C)(c2ccc(Cl)cn2)O3)CCN1Cc1nc2c(Cl)cc(C(=O)O)cc2n1C[C@@H]1CCO1 [Compound I-158]
35 | 105% | 39.1 pM |  | COc1cc(C(=O)O)cc2c1nc(CN1CCc3cc(C(F)(F)F)c(NCc4ccc(Cl)cc4F)nc3[C@@H]1C)n2C[C@@H]1CCO1 [Compound I-150]
36 | 112% | 371 pM |  | C[C@H]1c2nc(OCc3ncc(Cl)cc3Cl)c(C(F)(F)F)cc2CCN1Cc1nc2ccc(C(=O)O)cc2n1C[C@@H]1CCO1 [Compound I-106]
37 | 97.7% | 1090 pM |  | C[C@H]1c2nc(OCc3nc(Cl)cs3)c(C(F)(F)F)cc2CCN1Cc1nc2ccc(C(=O)O)cc2n1C[C@@H]1CCO1 [Compound I-149]
38 | 111% | 38 pM |  | C[C@H]1c2nc(OCc3ccc(Cl)cc3F)c(C(F)F)cc2CCN1Cc1nc2c(F)cc(C(=O)O)cc2n1C[C@@H]1CCO1 [Compound I-108]
39 | 119% | 173 pM |  | C[C@H]1c2nc(OCc3ccc(F)cc3Cl)c(C#N)cc2CCN1Cc1nc2c(Cl)cc(C(=O)O)cc2n1C[C@@H]1CCO1 [Compound I-182]
40 | 103% | 249 pM |  | C[C@H]1c2nc(OCc3ccc(Cl)cc3F)c(Cl)cc2CCN1Cc1nc2ccc(C(=O)O)nc2n1C[C@@H]1CCO1 [Compound I-034]
41 | 118% | 49.3 pM |  | COc1cc(C(=O)O)cc2c1nc(CN1CCc3cc(Cl)c(OCc4c(F)cc(F)cc4F)nc3[C@@H]1C)n2C[C@@H]1CCO1 [Compound I-075]
42 | 113% | 70.6 pM |  | C[C@H]1c2nc(OCc3ccc(F)cc3F)c(C(F)F)cc2CCN1Cc1nc2c(F)cc(C(=O)O)cc2n1C[C@@H]1CCO1 [Compound I-110]
43 | 135% | 151 pM |  | C[C@H]1c2nc(OCc3c(F)cc(F)cc3F)c(C#N)cc2CCN1Cc1nc2c(Cl)cc(C(=O)O)cc2n1C[C@@H]1CCO1 [Compound I-183]
